Data on four substances can be found in US9663565B2, “Insulinotropic peptide derivative with modified N-terminal charge” (HANMI PHARM. CO., LTD., priority 2013, dated 2017).

The subject of data set [1] is GLP-1 receptor (hGLP-1R/GST). Briefly: Binding activity with the GLP-1 receptor by surface plasmon resonance (BIACORE 3000), 1:1 Langmuir fitting. More on the design: species or system human. The following applies: SPR, hGLP-1R/GST immobilized to CM5 chip. From the text:
The expressed hGLP-1R/GST was immobilized to a CM5 chip by amine coupling. […].

Data set [2] can be described thus: N-terminal charge at pH 7.4. The format is physicochemical.

GLP-1 receptor (hGLP-1R/GST), sequence (P43220 24-139 limits assumed): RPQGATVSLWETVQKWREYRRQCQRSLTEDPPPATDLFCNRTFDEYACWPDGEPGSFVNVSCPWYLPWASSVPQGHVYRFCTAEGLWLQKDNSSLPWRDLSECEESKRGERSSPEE

One may read the Kd as the constant that tells how readily two partners part at equilibrium. With “desamino-histidyl-exendin-4 [DA-exendin-4]”, in data set [1], the Ka is recorded as 1.13 ± 0.08 1/Ms, ×10^5; binding was put at a Kd of 32.2 ± 1.89 nM; the kd is on record as 36.5 ± 1.40 1/s, ×10^4. Besides, the “N-terminal charge at pH 7.4” value in data set [2] is recorded as “Neutral”.

Consider imidazoacetyl-exendin-4 [CA-exendin-4], for which, in data set [1], the Ka is reported as 1.20 ± 0.11 1/Ms, ×10^5; binding was put at a Kd of 26.3 ± 2.08 nM; the kd is 31.5 ± 0.56 1/s, ×10^4. Further, the “N-terminal charge at pH 7.4” value in data set [2] is on record as “Neutral”.

Take “beta-hydroxy imidazopropionyl-exendin-4 [HY-exendin-4]”: in data set [1], the Ka is on record as 0.90 ± 0.07 1/Ms, ×10^5; the Kd was 42.7 ± 4.1 nM; the kd is reported as 38.3 ± 1.92 1/s, ×10^4. Moreover, the “N-terminal charge at pH 7.4” value in data set [2] is given as “Neutral”.

For the substance DA-exendin-4-propyl-amide, in data set [1], the Ka is reported as 1.04 ± 0.11 1/Ms, ×10^5; the equilibrium dissociation constant (Kd) worked out at 32.6 ± 4.17 nM; the kd is listed as 33.5 ± 1.40 1/s, ×10^4. Besides, the “N-terminal charge at pH 7.4” value in data set [2] is reported as “Neutral”.
